For assay [1], the system named is MEK1 phosphorylation in the A375 human melanoma cell line. In words: cells. The conditions noted are these: A-375, read-out: pMEK IC50.
The next assay has as its system A375 cells. In words: cells. The note with it: Homo sapiens, A-375, read-out: A375 Viability EC50.
Assay [2] deals with RAF kinases (Homo sapiens, UniProt P15056). In words: biochemical.
Assay [3] addresses RAF kinases (Homo sapiens, UniProt P04049). In words: biochemical.
In assay [4] the target is RAF kinases (Homo sapiens, UniProt P15056, V600E). In words: biochemical.

Our source for the IC50, EC50 and Kd values is patent US8618289B2 (Ambit Biosciences Corporation, priority 2008, dated 2013).

RAF kinases (Homo sapiens, UniProt P04049), sequence (P04049 whole entry): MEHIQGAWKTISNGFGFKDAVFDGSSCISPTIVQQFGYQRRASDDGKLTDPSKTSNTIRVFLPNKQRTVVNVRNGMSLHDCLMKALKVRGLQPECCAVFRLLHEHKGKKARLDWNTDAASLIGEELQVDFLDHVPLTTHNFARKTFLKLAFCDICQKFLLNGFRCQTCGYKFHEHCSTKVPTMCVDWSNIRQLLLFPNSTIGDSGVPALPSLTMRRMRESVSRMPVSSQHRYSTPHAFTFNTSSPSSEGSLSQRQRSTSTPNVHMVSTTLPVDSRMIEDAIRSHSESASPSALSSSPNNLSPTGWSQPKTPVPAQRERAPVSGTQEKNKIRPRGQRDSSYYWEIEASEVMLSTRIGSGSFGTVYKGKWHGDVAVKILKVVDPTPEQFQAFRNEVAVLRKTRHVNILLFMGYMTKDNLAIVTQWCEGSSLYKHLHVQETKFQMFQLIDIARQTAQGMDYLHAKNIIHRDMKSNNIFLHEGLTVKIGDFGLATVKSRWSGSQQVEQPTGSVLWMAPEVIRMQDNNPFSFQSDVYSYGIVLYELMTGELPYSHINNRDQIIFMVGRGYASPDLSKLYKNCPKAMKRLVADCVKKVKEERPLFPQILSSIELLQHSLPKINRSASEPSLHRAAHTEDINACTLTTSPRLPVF
RAF kinases (Homo sapiens, UniProt P15056), sequence (P15056 whole entry): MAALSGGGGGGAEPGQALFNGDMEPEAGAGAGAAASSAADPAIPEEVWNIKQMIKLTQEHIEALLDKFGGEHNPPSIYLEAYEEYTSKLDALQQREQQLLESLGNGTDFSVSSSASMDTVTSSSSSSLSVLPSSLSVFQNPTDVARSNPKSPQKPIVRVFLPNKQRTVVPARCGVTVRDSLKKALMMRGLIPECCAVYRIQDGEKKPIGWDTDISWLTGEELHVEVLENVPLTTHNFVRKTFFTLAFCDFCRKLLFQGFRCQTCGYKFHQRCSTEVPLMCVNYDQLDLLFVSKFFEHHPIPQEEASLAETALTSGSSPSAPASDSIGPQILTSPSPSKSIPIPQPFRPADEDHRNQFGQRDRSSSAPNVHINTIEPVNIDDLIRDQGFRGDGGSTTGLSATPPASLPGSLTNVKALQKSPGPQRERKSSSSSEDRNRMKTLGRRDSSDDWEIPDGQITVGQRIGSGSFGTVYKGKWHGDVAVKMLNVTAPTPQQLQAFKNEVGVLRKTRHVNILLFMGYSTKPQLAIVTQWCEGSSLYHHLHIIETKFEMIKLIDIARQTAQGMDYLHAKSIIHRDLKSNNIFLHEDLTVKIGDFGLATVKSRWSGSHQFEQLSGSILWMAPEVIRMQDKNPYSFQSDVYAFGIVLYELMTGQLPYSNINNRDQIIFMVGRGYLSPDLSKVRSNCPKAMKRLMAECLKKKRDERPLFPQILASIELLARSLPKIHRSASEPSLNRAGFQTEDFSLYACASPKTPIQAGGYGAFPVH
RAF kinases (Homo sapiens, UniProt P15056, V600E), sequence (P15056 whole entry V600E): as the sequence (P15056 whole entry) above, with V600E counted along it

In the case of `COc1cc(NC(=O)Nc2cccc(Oc3ncnc4cc(OC)c(OC)cc34)c2)cc(C(F)(F)F)c1` [Ex 116, 1-(3-(6,7-dimethoxyquinazolin-4-yloxy)phenyl)-3-(3-methoxy-5-(trifluoromethyl)phenyl)urea], the IC50 in assay [1] was greater than 1000 nM. In addition, the half-maximal effective concentration (EC50) with A375 cells is greater than 1000 nM. The values for the Kd at RAF kinases [2], on RAF kinases [3] and at RAF kinases [4] were 500 to 1000 nM, 250 to 500 nM and 250 to 500 nM, respectively.

For `COc1cc2ncnc(Sc3cccc(NC(=O)Nc4ccc(C(F)(F)F)cc4)c3)c2cc1OC` [Ex 184, 1-(3-(6,7-dimethoxyquinazolin-4-ylthio)phenyl)-3-(4-(trifluoromethyl)phenyl)urea], in assay [1], the IC50 is 250 to 500 nM. Moreover, the EC50 in the assay with A375 cells fell in the range of 500 to 1000 nM. Also, the Kd on RAF kinases [2] lay within 500 to 1000 nM; on RAF kinases [3] it was 250 to 500 nM; on RAF kinases [4], 250 to 500 nM.

As for `COc1cc2ncnc(Sc3cccc(NC(=O)Nc4ccc(C(C)(C)C)cc4)c3)c2cc1OC` [Ex 174, 1-(4-tert-butylphenyl)-3-(3-(6,7-dimethoxyquinazolin-4-ylthio)phenyl)urea], the IC50 in assay [1] was greater than 1000 nM. For the same compound, in the assay with A375 cells, the EC50 is greater than 1000 nM. Moreover, the equilibrium dissociation constant (Kd) at RAF kinases [3] and on RAF kinases [4] was 250 to 500 nM each time.

`COCCOc1cc2ncnc(Oc3cccc(NC(=O)Nc4cc(C(C)(C)C)nn4C)c3)c2cc1OC` [Ex 209, 1-(3-tert-butyl-1-methyl-1H-pyrazol-5-yl)-3-(3-(6-methoxy-7-(2-methoxyethoxy)quinazolin-4-yloxy)phenyl)urea]: the IC50 in assay [1] lay in the range of 500 to 1000 nM. The EC50 in the assay on A375 cells is greater than 1000 nM. For the same compound, the Kd on RAF kinases [2] was greater than 1000 nM; at RAF kinases [3], greater than 1000 nM; at RAF kinases [4] it was 250 to 500 nM.

For `COc1cc2ncnc(Oc3cccc(NC(=O)Nc4ccc(C(F)(F)F)c(F)c4)c3)c2cc1OC` [Ex 150, 1-(3-(6,7-dimethoxyquinazolin-4-yloxy)phenyl)-3-(3-fluoro-4-(trifluoromethyl)phenyl)urea], the IC50 in assay [1] is greater than 1000 nM. Also, the concentration for a half-maximal effect (EC50) in the assay with A375 cells was greater than 1000 nM. For the same compound, the figures for the dissociation constant Kd on RAF kinases [2], on RAF kinases [3] and on RAF kinases [4] were 500 to 1000 nM, 500 to 1000 nM and 250 to 500 nM, respectively.

In the case of `COc1cc2ncnc(Oc3cccc(NC(=O)Nc4cc(C(F)(F)F)ccc4Cl)c3)c2cc1OC` [Ex 142, 1-(2-chloro-5-(trifluoromethyl)phenyl)-3-(3-(6,7-dimethoxyquinazolin-4-yloxy)phenyl)urea], in assay [1], the IC50 is greater than 1000 nM. Further, the EC50 in the assay with A375 cells is greater than 1000 nM. Besides, the Kd on RAF kinases [3] and at RAF kinases [4] was 250 to 500 nM each time.

As to `CCOc1cc2ncnc(Sc3cccc(NC(=O)Nc4cc(C(C)(C)C)on4)c3)c2cc1OC` [Ex 50, 1-(5-tert-butylisoxazol-3-yl)-3-[3-(7-ethoxy-6-methoxyquinazolin-4-ylthio)phenyl]urea], the IC50 in assay [1] lay in the range of 250 to 500 nM. The EC50 in the assay with A375 cells was greater than 1000 nM. In addition, the Kd at RAF kinases [2] lay in the range of 500 to 1000 nM; on RAF kinases [3], 250 to 500 nM; on RAF kinases [4], 250 to 500 nM.

Turning to `COCCOc1cc2ncnc(Oc3cccc(NC(=O)Nc4ccc(C(F)(F)F)c(F)c4)c3)c2cc1OC` [Ex 222, 1-(3-fluoro-4-(trifluoromethyl)phenyl)-3-(3-(6-methoxy-7-(2-methoxyethoxy)quinazolin-4-yloxy)phenyl)urea], the IC50 in assay [1] is greater than 1000 nM. Further, the 50% effective concentration (EC50) with A375 cells is greater than 1000 nM. For the same compound, the results for the Kd at RAF kinases [2], on RAF kinases [3] and on RAF kinases [4] were 500 to 1000 nM, 250 to 500 nM and 250 to 500 nM, respectively.

Regarding `COc1cc2ncnc(Oc3cccc(NC(=O)Nc4cc(C5CCCC5)no4)c3)c2cc1OC` [Ex 163, 1-(3-cyclopentylisoxazol-5-yl)-3-(3-(6,7-dimethoxyquinazolin-4-yloxy)phenyl)urea], the IC50 in assay [1] was greater than 1000 nM. In the assay on A375 cells, the half-maximal effective concentration (EC50) is greater than 1000 nM. Moreover, the Kd on RAF kinases [3] was in the range of 500 to 1000 nM; on RAF kinases [4], 250 to 500 nM.

For the compound `COc1cc2ncnc(Sc3cccc(NC(=O)Nc4cc(CN5CCOCC5)cc(C(F)(F)F)c4)c3)c2cc1OC` [Ex 189, 1-(3-(6,7-dimethoxyquinazolin-4-ylthio)phenyl)-3-(3-(morpholinomethyl)-5-(trifluoromethyl)phenyl)urea], the IC50 in assay [1] lay within 500 to 1000 nM. Also, in the assay with A375 cells, the EC50 was in the range of 500 to 1000 nM. The figures for the Kd on RAF kinases [3] and on RAF kinases [4] were 500 to 1000 nM and 250 to 500 nM, respectively.

`COCCOc1ccc2ncnc(Sc3cccc(NC(=O)Nc4cc(C(C)(C)C)on4)c3)c2c1` [Ex 87, 1-(5-tert-butylisoxazol-3-yl)-3-(3-(6-(2-methoxyethoxy)quinazolin-4-ylthio)phenyl)urea]: the IC50 in assay [1] was 250 to 500 nM. The EC50 in the assay on A375 cells is greater than 1000 nM. In addition, the Kd on RAF kinases [3] was 500 to 1000 nM; at RAF kinases [4] it was 250 to 500 nM.

In the case of `COc1cc2ncnc(Sc3cccc(NC(=O)Nc4ccc(C(F)(F)F)c(F)c4)c3)c2cc1OC` [Ex 188, 1-(3-(6,7-dimethoxyquinazolin-4-ylthio)phenyl)-3-(3-fluoro-4-(trifluoromethyl)phenyl)urea], the 50% inhibitory concentration (IC50) in assay [1] was greater than 1000 nM. Besides, in the assay on A375 cells, the EC50 is greater than 1000 nM. Besides, the dissociation constant Kd on RAF kinases [3] fell in the range of 500 to 1000 nM; on RAF kinases [4], 250 to 500 nM.

For `COCCOc1cc(NC(=O)Nc2cccc(Oc3ncnc4cc(OCCOC)c(OC)cc34)c2)cc(C(F)(F)F)c1` [Ex 117, 1-(3-(6-methoxy-7-(2-methoxyethoxy)quinazolin-4-yloxy)phenyl)-3-(3-(2-methoxyethoxy)-5-(trifluoromethyl)phenyl)urea], the concentration for half-maximal inhibition (IC50) in assay [1] is greater than 1000 nM. In addition, in the assay with A375 cells, the EC50 was greater than 1000 nM. Besides, the Kd was in the range of 500 to 1000 nM at RAF kinases [2], 250 to 500 nM on RAF kinases [3] and 250 to 500 nM on RAF kinases [4].

As to `COCCOc1cc2ncnc(Oc3cccc(NC(=O)Nc4cc(-c5ccccc5)on4)c3)c2cc1OC` [Ex 203, 1-(3-(6-methoxy-7-(2-methoxyethoxy)quinazolin-4-yloxy)phenyl)-3-(5-phenylisoxazol-3-yl)urea], in assay [1], the IC50 is greater than 1000 nM. The EC50 in the assay on A375 cells is greater than 1000 nM. Also, the dissociation constant (Kd) at RAF kinases [2], on RAF kinases [3] and at RAF kinases [4] was greater than 1000 nM each time.

`COc1cc2ncnc(Sc3cccc(NC(=O)Nc4cc(C(C)(C)C(F)(F)F)on4)c3)c2cc1OC` [Ex 261, 1-(3-(6,7-dimethoxyquinazolin-4-ylthio)phenyl)-3-(5-(1,1,1-trifluoro-2-methylpropan-2-yl)isoxazol-3-yl)urea]: in assay [1], the IC50 was less than 250 nM. In addition, the EC50 in the assay on A375 cells was greater than 1000 nM. Further, the Kd on RAF kinases [2] was 250 to 500 nM; on RAF kinases [3] it was less than 250 nM; on RAF kinases [4], less than 250 nM.

With `COCCOc1cc2ncnc(Oc3cccc(NC(=O)Nc4cc(C(C)(C)C)nn4-c4ccccc4)c3)c2cc1OC` [Ex 210, 1-(3-tert-butyl-1-phenyl-1H-pyrazol-5-yl)-3-(3-(6-methoxy-7-(2-methoxyethoxy)quinazolin-4-yloxy)phenyl)urea], the 50% inhibitory concentration (IC50) in assay [1] is less than 250 nM. For the same compound, the Kd at RAF kinases [2], at RAF kinases [3] and on RAF kinases [4] was greater than 1000 nM throughout.

Turning to `COc1cc2ncnc(Oc3cccc(NC(=O)Nc4cc(C5CCOCC5)no4)c3)c2cc1OC` [Ex 123, 1-(3-(6,7-dimethoxyquinazolin-4-yloxy)phenyl)-3-(3-(tetrahydro-2H-pyran-4-yl)isoxazol-5-yl)urea], the IC50 in assay [1] is greater than 1000 nM. Besides, the concentration giving a half-maximal response (EC50) in the assay with A375 cells is greater than 1000 nM. Further, the Kd lay within 500 to 1000 nM on RAF kinases [3] and 250 to 500 nM at RAF kinases [4].

`COc1cc2ncnc(Oc3cccc(NC(=O)Nc4cc(Cl)cc(C(F)(F)F)c4)c3)c2cc1OC` [Ex 140, 1-(3-chloro-5-(trifluoromethyl)phenyl)-3-(3-(6,7-dimethoxyquinazolin-4-yloxy)phenyl)urea]: the IC50 in assay [1] is greater than 1000 nM. Besides, the EC50 in the assay on A375 cells was greater than 1000 nM. The Kd on RAF kinases [3] and at RAF kinases [4] was 500 to 1000 nM in each case.

`COc1ccc2ncnc(Sc3cccc(NC(=O)Nc4cc(C(C)(C)C)on4)c3)c2c1` [Ex 49, 1-(5-tert-butylisoxazol-3-yl)-3-(3-(6-methoxyquinazolin-4-ylthio)phenyl)urea]: the IC50 in assay [1] is 500 to 1000 nM. Also, in the assay with A375 cells, the EC50 is greater than 1000 nM. Besides, the results for the Kd on RAF kinases [3] and on RAF kinases [4] were 500 to 1000 nM and 250 to 500 nM, respectively.

As to `COCCOc1cc2ncnc(Sc3cccc(NC(=O)Nc4cc(C(C)(C)C)nn4-c4ccc(C)cc4)c3)c2cc1OC` [Ex 277, 1-(3-tert-butyl-1-p-tolyl-1H-pyrazol-5-yl)-3-(3-(6-methoxy-7-(2-methoxyethoxy)quinazolin-4-ylthio)phenyl)urea], the IC50 in assay [1] is less than 250 nM. In addition, the dissociation constant Kd is greater than 1000 nM at RAF kinases [2], greater than 1000 nM on RAF kinases [3] and 250 to 500 nM at RAF kinases [4].

As for `COc1cc2ncnc(Oc3cccc(NC(=O)Nc4nccc(C(F)(F)F)n4)c3)c2cc1OC` [Ex 143, 1-(3-(6,7-dimethoxyquinazolin-4-yloxy)phenyl)-3-(4-(trifluoromethyl)pyrimidin-2-yl)urea], the IC50 in assay [1] was greater than 1000 nM. The EC50 in the assay on A375 cells was greater than 1000 nM. For the same compound, the Kd on RAF kinases [3] and at RAF kinases [4] was 250 to 500 nM in each case.

Take `COCCOc1cc(NC(=O)Nc2cccc(Oc3ncnc4cc(OC)c(OC)cc34)c2)ccc1C(F)(F)F` [Ex 147, 1-(3-(6,7-dimethoxyquinazolin-4-yloxy)phenyl)-3-(3-(2-methoxyethoxy)-4-(trifluoromethyl)phenyl)urea]: the IC50 in assay [1] was greater than 1000 nM. The EC50 in the assay on A375 cells is greater than 1000 nM. The Kd at RAF kinases [3] lay within 500 to 1000 nM; on RAF kinases [4] it was 250 to 500 nM.

For the compound `COc1cc(OC2CCOCC2)c2c(Oc3cccc(NC(=O)Nc4cc(C(C)(C)C)on4)c3)ncnc2c1` [Ex 94, 1-(5-tert-butylisoxazol-3-yl)-3-{3-[7-methoxy-5-(tetrahydro-2H-pyran-4-yloxy)quinazolin-4-yloxy]phenyl}urea], the half-inhibitory concentration (IC50) in assay [1] lay within 250 to 500 nM. Also, in the assay on A375 cells, the EC50 is greater than 1000 nM. Moreover, the Kd on RAF kinases [3] and at RAF kinases [4] was 250 to 500 nM throughout.
